In paper PMC6540285, “Evaluation of Protein Kinase Inhibitors with PLK4 Cross-Over Potential in a Pre-Clinical Model of Cancer” (International Journal of Molecular Sciences, 2019):

What was measured:
ACVRL1 (ALK1) = ACVRL1 (ALK1) (Homo sapiens, UniProt P37023); experiment: SelectScreen kinase profiling, LanthaScreen binding
ADRBK2 (GRK3) = ADRBK2 (GRK3) (Homo sapiens, UniProt P35626); experiment: SelectScreen kinase profiling, ZLYTE; type: biochemical
AKT1 (PKB alpha) = AKT1 (PKB alpha) (Homo sapiens, UniProt P31749); experiment: SelectScreen kinase profiling, ZLYTE; type: biochemical
AMPK (A1/B1/G2) = AMPK (A1/B1/G2) (Homo sapiens, UniProt Q13131); experiment: SelectScreen kinase profiling, LanthaScreen binding
AMPK (A1/B2/G1) = AMPK (A1/B2/G1) (Homo sapiens, UniProt Q13131); experiment: as above
AMPK (A2/B1/G2) = AMPK (A2/B1/G2) (Homo sapiens, UniProt P54646); experiment: SelectScreen kinase profiling, ZLYTE; type: biochemical
AMPK (A2/B1/G2), sequence (P54646 whole entry): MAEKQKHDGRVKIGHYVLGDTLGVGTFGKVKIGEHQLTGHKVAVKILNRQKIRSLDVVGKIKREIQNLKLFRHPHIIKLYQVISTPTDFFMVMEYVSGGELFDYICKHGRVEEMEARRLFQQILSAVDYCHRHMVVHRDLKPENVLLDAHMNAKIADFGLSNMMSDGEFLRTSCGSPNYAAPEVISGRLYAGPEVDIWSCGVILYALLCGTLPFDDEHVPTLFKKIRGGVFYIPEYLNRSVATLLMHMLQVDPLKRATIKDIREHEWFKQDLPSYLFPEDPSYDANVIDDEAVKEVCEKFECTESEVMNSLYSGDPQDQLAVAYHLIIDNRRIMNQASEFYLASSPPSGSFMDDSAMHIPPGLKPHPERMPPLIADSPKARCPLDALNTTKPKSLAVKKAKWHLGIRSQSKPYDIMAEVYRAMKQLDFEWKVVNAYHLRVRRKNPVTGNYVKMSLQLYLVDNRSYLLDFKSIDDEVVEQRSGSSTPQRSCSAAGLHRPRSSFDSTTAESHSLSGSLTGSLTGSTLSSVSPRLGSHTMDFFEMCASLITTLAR
AMPK (A2/B1/G2), sequence (Q9Y478 whole entry partner): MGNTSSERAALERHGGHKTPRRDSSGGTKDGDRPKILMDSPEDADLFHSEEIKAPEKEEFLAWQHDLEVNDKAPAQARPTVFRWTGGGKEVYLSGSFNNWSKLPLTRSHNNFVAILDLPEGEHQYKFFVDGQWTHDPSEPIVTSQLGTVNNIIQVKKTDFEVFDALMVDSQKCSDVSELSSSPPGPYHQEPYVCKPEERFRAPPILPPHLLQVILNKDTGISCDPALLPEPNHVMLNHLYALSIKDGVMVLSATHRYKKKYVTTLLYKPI
AMPK (A2/B1/G2), sequence (Q9UGJ0 whole entry partner): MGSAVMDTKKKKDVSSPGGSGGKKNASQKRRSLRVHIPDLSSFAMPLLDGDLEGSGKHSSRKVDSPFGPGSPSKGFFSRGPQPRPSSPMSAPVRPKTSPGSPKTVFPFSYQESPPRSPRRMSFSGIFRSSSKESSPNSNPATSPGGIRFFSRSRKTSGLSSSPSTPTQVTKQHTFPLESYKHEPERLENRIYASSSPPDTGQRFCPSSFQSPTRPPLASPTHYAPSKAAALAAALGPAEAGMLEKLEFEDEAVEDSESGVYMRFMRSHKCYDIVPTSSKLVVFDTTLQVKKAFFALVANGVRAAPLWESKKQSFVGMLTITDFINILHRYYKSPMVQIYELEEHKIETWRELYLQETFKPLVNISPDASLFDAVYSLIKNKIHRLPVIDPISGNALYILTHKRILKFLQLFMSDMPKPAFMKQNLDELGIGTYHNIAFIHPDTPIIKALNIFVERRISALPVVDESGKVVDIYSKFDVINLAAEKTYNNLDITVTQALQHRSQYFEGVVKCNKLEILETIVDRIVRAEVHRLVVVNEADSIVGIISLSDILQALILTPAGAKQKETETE

BLK = BLK (Homo sapiens, UniProt P51451); experiment: SelectScreen kinase profiling, ZLYTE; type: biochemical
BMPR1B (ALK6) = BMPR1B (ALK6) (Homo sapiens, UniProt O00238); experiment: SelectScreen kinase profiling, LanthaScreen binding
BRAF = BRAF (Homo sapiens, UniProt P15056); experiment: SelectScreen kinase profiling, ZLYTE; type: biochemical
CAMKK2 (CaMKK beta) = CAMKK2 (CaMKK beta) (Homo sapiens, UniProt Q96RR4); experiment: SelectScreen kinase profiling, LanthaScreen binding
CDC7/DBF4 = CDC7/DBF4 (Homo sapiens, UniProt O00311); experiment: as above; conditions: CDC7/DBF4, 10 µM
CDK5/p25 = CDK5/p25 (Homo sapiens, UniProt Q00535); experiment: SelectScreen kinase profiling, ZLYTE; type: biochemical; conditions: CDK5/p25, 10 µM
[1] = biological target: CSNK1E (CK1 epsilon) R178C (Homo sapiens, UniProt P49674, R178C); experiment: SelectScreen kinase profiling, ZLYTE; type: biochemical
CSNK1E (CK1 epsilon) R178C, sequence (P49674 whole entry R178C): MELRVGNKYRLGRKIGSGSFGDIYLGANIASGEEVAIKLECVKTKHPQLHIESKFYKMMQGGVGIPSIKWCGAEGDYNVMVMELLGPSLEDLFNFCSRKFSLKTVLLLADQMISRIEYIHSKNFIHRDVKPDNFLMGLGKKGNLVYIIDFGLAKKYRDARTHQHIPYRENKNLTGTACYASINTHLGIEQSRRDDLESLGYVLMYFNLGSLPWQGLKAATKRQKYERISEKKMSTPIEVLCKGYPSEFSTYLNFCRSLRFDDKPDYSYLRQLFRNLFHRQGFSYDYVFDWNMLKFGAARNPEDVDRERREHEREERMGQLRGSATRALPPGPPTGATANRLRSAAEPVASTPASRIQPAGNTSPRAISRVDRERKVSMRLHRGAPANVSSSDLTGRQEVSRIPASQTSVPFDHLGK

EPHA5 = EPHA5 (Homo sapiens, UniProt P54756); experiment: SelectScreen kinase profiling, ZLYTE; type: biochemical; conditions: EPHA5, 10 µM
ERBB4 (HER4) = ERBB4 (HER4) (Homo sapiens, UniProt Q15303); experiment: SelectScreen kinase profiling, ZLYTE; type: biochemical
ERBB4 (HER4), sequence (Q15303 26-1308): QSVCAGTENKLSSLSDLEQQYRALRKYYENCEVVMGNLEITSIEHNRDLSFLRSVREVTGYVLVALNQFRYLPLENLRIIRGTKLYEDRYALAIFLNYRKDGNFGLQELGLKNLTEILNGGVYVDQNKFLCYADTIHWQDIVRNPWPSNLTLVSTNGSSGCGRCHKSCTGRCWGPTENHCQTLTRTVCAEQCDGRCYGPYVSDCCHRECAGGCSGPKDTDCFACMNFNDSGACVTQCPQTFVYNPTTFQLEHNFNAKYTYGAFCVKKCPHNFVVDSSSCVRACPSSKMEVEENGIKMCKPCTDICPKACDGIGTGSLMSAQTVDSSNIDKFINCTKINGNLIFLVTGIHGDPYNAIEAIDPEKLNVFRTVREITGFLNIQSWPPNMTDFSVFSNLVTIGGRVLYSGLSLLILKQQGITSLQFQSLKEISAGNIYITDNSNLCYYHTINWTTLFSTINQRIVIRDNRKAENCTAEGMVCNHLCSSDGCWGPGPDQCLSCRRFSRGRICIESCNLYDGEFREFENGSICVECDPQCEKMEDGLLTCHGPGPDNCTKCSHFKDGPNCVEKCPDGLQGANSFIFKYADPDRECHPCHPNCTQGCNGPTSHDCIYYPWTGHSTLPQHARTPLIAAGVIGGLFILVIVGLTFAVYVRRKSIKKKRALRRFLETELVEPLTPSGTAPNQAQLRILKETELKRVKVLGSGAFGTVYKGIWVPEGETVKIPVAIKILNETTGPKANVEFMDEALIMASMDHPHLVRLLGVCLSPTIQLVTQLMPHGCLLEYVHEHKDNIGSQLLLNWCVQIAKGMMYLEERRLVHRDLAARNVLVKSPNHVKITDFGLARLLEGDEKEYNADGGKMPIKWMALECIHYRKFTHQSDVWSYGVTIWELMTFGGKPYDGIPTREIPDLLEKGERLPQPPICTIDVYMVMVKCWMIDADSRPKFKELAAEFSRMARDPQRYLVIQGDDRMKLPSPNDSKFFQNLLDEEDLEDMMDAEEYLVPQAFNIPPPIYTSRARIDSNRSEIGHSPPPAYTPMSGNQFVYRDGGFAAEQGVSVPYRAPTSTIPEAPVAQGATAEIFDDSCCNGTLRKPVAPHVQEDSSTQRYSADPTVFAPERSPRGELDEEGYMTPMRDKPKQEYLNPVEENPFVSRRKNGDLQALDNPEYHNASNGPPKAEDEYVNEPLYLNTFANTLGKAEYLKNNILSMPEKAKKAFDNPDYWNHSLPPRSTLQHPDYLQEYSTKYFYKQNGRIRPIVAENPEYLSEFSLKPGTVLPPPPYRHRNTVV

FER = FER (Homo sapiens, UniProt P16591); experiment: SelectScreen kinase profiling, ZLYTE; type: biochemical
FGFR3 = FGFR3 (Homo sapiens, UniProt P22607); experiment: SelectScreen kinase profiling, ZLYTE; type: biochemical; conditions: FGFR3, 10 µM
FGFR3 K650M = FGFR3 K650M (Homo sapiens, UniProt P22607, K650M); experiment: SelectScreen kinase profiling, LanthaScreen binding
FGFR4 = FGFR4 (Homo sapiens, UniProt P22455); experiment: SelectScreen kinase profiling, ZLYTE; type: biochemical; conditions: FGFR4, 10 µM
GAK = GAK (Homo sapiens, UniProt O14976); experiment: SelectScreen kinase profiling, LanthaScreen binding
GRK6 = GRK6 (Homo sapiens, UniProt P43250); experiment: SelectScreen kinase profiling, ZLYTE; type: biochemical; conditions: GRK6, 10 µM
GRK6, sequence (P43250 whole entry): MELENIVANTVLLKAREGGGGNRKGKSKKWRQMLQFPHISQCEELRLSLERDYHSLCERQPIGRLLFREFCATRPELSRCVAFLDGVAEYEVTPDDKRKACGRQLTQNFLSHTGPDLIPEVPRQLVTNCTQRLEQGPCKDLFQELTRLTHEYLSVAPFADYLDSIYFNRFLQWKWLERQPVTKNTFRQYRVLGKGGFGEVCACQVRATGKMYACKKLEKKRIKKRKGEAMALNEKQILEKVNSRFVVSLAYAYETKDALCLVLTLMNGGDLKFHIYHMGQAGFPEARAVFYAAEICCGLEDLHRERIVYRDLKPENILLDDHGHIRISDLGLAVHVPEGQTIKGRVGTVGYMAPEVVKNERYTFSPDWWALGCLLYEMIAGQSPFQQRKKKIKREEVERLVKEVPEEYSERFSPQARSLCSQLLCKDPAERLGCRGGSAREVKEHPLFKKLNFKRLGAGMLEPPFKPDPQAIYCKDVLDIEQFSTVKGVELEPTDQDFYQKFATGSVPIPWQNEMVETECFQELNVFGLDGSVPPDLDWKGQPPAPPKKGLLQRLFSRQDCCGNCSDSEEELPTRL

IRAK4 = IRAK4 (Homo sapiens, UniProt Q9NWZ3); experiment: SelectScreen kinase profiling, ZLYTE; type: biochemical; conditions: IRAK4, 10 µM
ITK = ITK (Homo sapiens, UniProt Q08881); experiment: SelectScreen kinase profiling, ZLYTE; type: biochemical
MAP3K2 (MEKK2) = MAP3K2 (MEKK2) (Homo sapiens, UniProt Q9Y2U5); experiment: SelectScreen kinase profiling, LanthaScreen binding
MAP3K5 (ASK1) = MAP3K5 (ASK1) (Homo sapiens, UniProt Q99683); experiment: as above
MAPK9 (JNK2) = MAPK9 (JNK2) (Homo sapiens, UniProt P45984); experiment: as above
NEK1 = NEK1 (Homo sapiens, UniProt Q96PY6); experiment: SelectScreen kinase profiling, ZLYTE; type: biochemical; conditions: NEK1, 10 µM
NTRK1 (TRKA) = NTRK1 (TRKA) (Homo sapiens, UniProt P04629); experiment: SelectScreen kinase profiling, ZLYTE; type: biochemical
PDGFRA (PDGFR alpha) = PDGFRA (PDGFR alpha) (Homo sapiens, UniProt P16234); experiment: SelectScreen kinase profiling, ZLYTE; type: biochemical
[2] = biological target: PIK3CA/PIK3R1 (p110 alpha/p85 alpha) (Homo sapiens, UniProt P42336); experiment: SelectScreen kinase profiling, Adapta; type: biochemical; conditions: PIK3CA/PIK3R1, 10 µM
[3] = biological target: PIK3CA/PIK3R3 (p110 alpha/p55 gamma) (Homo sapiens, UniProt P42336); experiment: SelectScreen kinase profiling, Adapta; type: biochemical; conditions: PIK3CA/PIK3R3, 10 µM
PIM1 = PIM1 (Homo sapiens, UniProt P11309); experiment: SelectScreen kinase profiling, ZLYTE; type: biochemical; conditions: PIM1, 10 µM
PLK3 = PLK3 (Homo sapiens, UniProt Q9H4B4); experiment: SelectScreen kinase profiling, ZLYTE; type: biochemical; conditions: PLK3, 10 µM
RET G691S = RET G691S (Homo sapiens, UniProt P07949, G691S); experiment: SelectScreen kinase profiling, LanthaScreen binding
RET G691S, sequence (P07949 29-1114 G691S): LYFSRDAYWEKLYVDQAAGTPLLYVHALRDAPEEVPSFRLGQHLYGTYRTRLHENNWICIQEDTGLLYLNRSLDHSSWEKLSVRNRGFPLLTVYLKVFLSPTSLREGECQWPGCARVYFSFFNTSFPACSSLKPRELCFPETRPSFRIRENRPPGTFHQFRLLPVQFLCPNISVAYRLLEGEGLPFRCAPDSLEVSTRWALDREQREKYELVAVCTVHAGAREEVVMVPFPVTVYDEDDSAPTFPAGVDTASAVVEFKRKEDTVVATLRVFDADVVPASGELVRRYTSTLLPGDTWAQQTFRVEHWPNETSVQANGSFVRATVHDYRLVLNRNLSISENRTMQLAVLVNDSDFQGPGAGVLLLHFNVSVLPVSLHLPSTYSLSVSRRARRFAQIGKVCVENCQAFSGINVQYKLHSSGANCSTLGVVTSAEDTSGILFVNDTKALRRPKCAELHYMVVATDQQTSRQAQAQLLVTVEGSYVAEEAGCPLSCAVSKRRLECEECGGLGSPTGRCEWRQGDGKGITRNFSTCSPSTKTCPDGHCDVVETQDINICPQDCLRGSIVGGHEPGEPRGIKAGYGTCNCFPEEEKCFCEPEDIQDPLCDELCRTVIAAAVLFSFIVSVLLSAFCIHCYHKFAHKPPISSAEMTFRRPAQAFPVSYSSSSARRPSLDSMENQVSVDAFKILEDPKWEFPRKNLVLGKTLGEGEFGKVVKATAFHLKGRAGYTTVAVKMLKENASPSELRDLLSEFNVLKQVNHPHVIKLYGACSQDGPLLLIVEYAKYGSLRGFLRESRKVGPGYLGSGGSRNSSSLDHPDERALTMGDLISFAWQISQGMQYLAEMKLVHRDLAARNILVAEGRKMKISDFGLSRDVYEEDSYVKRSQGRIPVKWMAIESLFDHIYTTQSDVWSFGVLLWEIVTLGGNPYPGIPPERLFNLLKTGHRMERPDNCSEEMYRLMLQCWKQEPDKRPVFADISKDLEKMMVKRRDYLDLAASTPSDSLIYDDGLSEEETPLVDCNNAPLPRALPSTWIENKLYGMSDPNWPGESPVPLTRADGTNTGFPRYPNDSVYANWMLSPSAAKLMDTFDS

RET V804L = RET V804L (Homo sapiens, UniProt P07949, V804L); experiment: SelectScreen kinase profiling, ZLYTE; type: biochemical
RET V804L, sequence (P07949 29-1114 V804L): as the sequence (P07949 29-1114 G691S) above, with S663G, V776L counted along it

RIPK3 = RIPK3 (Homo sapiens, UniProt Q9Y572); experiment: SelectScreen kinase profiling, LanthaScreen binding; conditions: RIPK3, 10 µM
RPS6KA5 (MSK1) = RPS6KA5 (MSK1) (Homo sapiens, UniProt O75582); experiment: SelectScreen kinase profiling, ZLYTE; type: biochemical
SGK2 = SGK2 (Homo sapiens, UniProt Q9HBY8); experiment: SelectScreen kinase profiling, ZLYTE; type: biochemical; conditions: SGK2, 10 µM
SNF1LK2 = SNF1LK2 (Homo sapiens, UniProt Q9H0K1); experiment: SelectScreen kinase profiling, ZLYTE; type: biochemical; conditions: SNF1LK2, 10 µM

## O=C(c1ccc(/C=C/c2n[nH]c3ccccc23)cc1)N1CCNCC1 [KW-2449]
ACVRL1 (ALK1)
  inhibition at 10 µM: 86%
ADRBK2 (GRK3)
  inhibition at 10 µM: 31%
AKT1 (PKB alpha)
  inhibition at 10 µM: 24%
AMPK (A1/B1/G2)
  inhibition at 10 µM: 85%
AMPK (A1/B2/G1)
  inhibition at 10 µM: 77%
AMPK (A2/B1/G2)
  inhibition at 10 µM: 97%
BLK
  inhibition at 10 µM: 89%
BMPR1B (ALK6)
  inhibition at 10 µM: 90%
BRAF
  inhibition at 10 µM: 67%
CAMKK2 (CaMKK beta)
  inhibition at 10 µM: 86%
CDC7/DBF4
  inhibition at 10 µM: 16%
CDK5/p25
  inhibition at 10 µM: 97%
[1]
  inhibition at 10 µM: 71%
EPHA5
  inhibition at 10 µM: 84%
ERBB4 (HER4)
  inhibition at 10 µM: 55%
FER
  inhibition at 10 µM: 98%
FGFR3
  inhibition at 10 µM: 97%
FGFR3 K650M
  inhibition at 10 µM: 22%
FGFR4
  inhibition at 10 µM: 70%
GAK
  inhibition at 10 µM: 67%
GRK6
  inhibition at 10 µM: 62%
IRAK4
  inhibition at 10 µM: 77%
ITK
  inhibition at 10 µM: 99%
MAP3K2 (MEKK2)
  inhibition at 10 µM: 86%
MAP3K5 (ASK1)
  inhibition at 10 µM: 63%
MAPK9 (JNK2)
  inhibition at 10 µM: 79%
NEK1
  inhibition at 10 µM: 67%
NTRK1 (TRKA)
  inhibition at 10 µM: 98%
PDGFRA (PDGFR alpha)
  inhibition at 10 µM: 91%
[2]
  inhibition at 10 µM: 11%
[3]
  inhibition at 10 µM: 4%
PIM1
  inhibition at 10 µM: 42%
PLK3
  inhibition at 10 µM: -10%
RET G691S
  inhibition at 10 µM: -30%
RET V804L
  inhibition at 10 µM: 100%
RIPK3
  inhibition at 10 µM: 18%
RPS6KA5 (MSK1)
  inhibition at 10 µM: 49%
SGK2
  inhibition at 10 µM: 95%
SNF1LK2
  inhibition at 10 µM: 97%
